{"source": "paper PMC8585119", "about": "“MATE-Type Proteins Are Responsible for Isoflavone Transportation and Accumulation in Soybean Seeds” (International Journal of Molecular Sciences, 2021)", "assay_in_all_cases": "yeast uptake assay, UPLC of cell extract versus empty vector", "format_in_all_cases": "cell-based", "details_in_all_cases": "fed as 200 uM mixture of genistein, daidzein and glycitein; PBS pH 7.4, 30 °C, overnight/24 h; whole yeast cells", "key": {"GmMATE1^W05": {"target": "T1, GmMATE1^W05 (Glycine soja, UniProt A0A191UP88)", "T1 construct": "gene MATE1; full-length CDS in pGBKT7 without GAL4 BD, ADH1 promoter, in yeast Y2HGold; no tag stated", "T1 sequence (A0A191UP88 1-495)": "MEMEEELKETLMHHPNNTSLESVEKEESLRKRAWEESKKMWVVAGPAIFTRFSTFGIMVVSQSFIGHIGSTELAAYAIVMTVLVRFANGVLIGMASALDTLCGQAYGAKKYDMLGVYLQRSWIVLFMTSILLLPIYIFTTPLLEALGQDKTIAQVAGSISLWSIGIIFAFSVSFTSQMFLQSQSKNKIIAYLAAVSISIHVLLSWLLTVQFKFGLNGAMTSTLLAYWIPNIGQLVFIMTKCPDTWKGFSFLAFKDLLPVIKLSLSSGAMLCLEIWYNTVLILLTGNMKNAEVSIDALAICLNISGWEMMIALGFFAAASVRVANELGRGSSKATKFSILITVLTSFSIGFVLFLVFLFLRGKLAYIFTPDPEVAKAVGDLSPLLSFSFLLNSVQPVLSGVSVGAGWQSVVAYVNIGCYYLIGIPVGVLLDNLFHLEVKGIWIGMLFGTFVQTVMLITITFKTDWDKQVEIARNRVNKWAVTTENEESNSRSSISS"}, "GmMATE1^C08": {"target": "T2, GmMATE1^C08 (Glycine max, UniProt I1N8G7)", "T2 construct": "gene LOC100775619; full-length CDS in pGBKT7 without GAL4 BD, ADH1 promoter, in yeast Y2HGold; no tag stated", "T2 sequence (I1N8G7 1-495)": "T1 sequence (A0A191UP88 1-495) with L206V, S330N"}, "GmMATE2^C08": {"target": "T3, GmMATE2^C08 (Glycine max, UniProt I1N8G8)", "T3 construct": "gene LOC100796360; full-length CDS in pGBKT7 without GAL4 BD, ADH1 promoter, in yeast Y2HGold; no tag stated", "T3 sequence (I1N8G8 1-496)": "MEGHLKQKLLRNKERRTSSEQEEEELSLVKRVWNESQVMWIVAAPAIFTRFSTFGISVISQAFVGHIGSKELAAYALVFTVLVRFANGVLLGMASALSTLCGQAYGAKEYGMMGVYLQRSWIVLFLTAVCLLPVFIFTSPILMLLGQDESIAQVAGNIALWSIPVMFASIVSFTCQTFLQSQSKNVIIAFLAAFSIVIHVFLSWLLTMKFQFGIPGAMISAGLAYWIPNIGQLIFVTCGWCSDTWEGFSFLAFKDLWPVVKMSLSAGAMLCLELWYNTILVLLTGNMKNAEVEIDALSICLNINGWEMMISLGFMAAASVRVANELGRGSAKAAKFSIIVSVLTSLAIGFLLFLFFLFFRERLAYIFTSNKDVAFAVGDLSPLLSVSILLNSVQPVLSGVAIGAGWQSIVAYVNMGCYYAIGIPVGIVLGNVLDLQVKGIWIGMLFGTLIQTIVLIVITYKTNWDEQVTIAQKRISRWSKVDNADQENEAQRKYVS"}, "GmMATE2^W05": {"target": "T4, GmMATE2^W05 (Glycine soja, UniProt A0A191UP89)", "T4 construct": "gene MATE2; full-length CDS in pGBKT7 without GAL4 BD, ADH1 promoter, in yeast Y2HGold; no tag stated", "T4 sequence (A0A191UP89 1-496)": "T3 sequence (I1N8G8 1-496) with N483S"}}, "note": "Substitutions are numbered along the chain they refer to.", "data": [{"smiles": "O=c1c(-c2ccc(O)cc2)coc2cc(O)ccc12", "note": "[daidzein]", "values": [{"measurement": "yeast uptake assay, UPLC of cell extract versus empty vector", "setting": "GmMATE1^W05", "value": "allelic forms from either the cultivated soybean C08 or the wild soybean W05 exhibited similar"}, {"measurement": "yeast uptake assay, UPLC of cell extract versus empty vector", "setting": "GmMATE1^C08", "value": "yeasts expressing GmMATE1 and GmMATE2 significantly accumulated more of all three metabolites"}, {"measurement": "yeast uptake assay, UPLC of cell extract versus empty vector", "setting": "GmMATE2^C08", "value": "yeasts expressing GmMATE1 and GmMATE2 significantly accumulated more of all three metabolites"}, {"measurement": "yeast uptake assay, UPLC of cell extract versus empty vector", "setting": "GmMATE2^W05", "value": "allelic forms from either the cultivated soybean C08 or the wild soybean W05 exhibited similar"}]}, {"smiles": "O=c1c(-c2ccc(O)cc2)coc2cc(O)cc(O)c12", "note": "[genistein]", "values": [{"measurement": "yeast uptake assay, UPLC of cell extract versus empty vector", "setting": "GmMATE1^W05", "value": "allelic forms from either the cultivated soybean C08 or the wild soybean W05 exhibited similar"}, {"measurement": "yeast uptake assay, UPLC of cell extract versus empty vector", "setting": "GmMATE1^C08", "value": "yeasts expressing GmMATE1 and GmMATE2 significantly accumulated more of all three metabolites"}, {"measurement": "yeast uptake assay, UPLC of cell extract versus empty vector", "setting": "GmMATE2^C08", "value": "yeasts expressing GmMATE1 and GmMATE2 significantly accumulated more of all three metabolites"}, {"measurement": "yeast uptake assay, UPLC of cell extract versus empty vector", "setting": "GmMATE2^W05", "value": "allelic forms from either the cultivated soybean C08 or the wild soybean W05 exhibited similar"}]}]}
